# Reference: publication PMC7822874, “Chemoprotective antimalarials identified through quantitative high-throughput screening of Plasmodium blood and liver stage parasites” (Scientific Reports, 2021)
# Like-named read-outs stand apart in the source and are kept apart here.
# Tests used:
# [1] = system: P. falciparum Dd2 (clone B2) asexual blood stage parasites; test: P. falciparum Dd2 asexual blood stage SYBR Green-I 72 h proliferation assay (qHTS); assay type: cell-based, Plasmodium falciparum; conditions: averaged P. falciparum asexual blood stage potency, log10 of AC50 in M
# [2] = system: P. berghei-ANKA-GFP-LucCON liver stage parasites in HepG2-A16-CD81EGFP cells; test: P. berghei liver stage Pb-Luc assay, Method 1 (UCSD, 1536-well); assay type: cell-based, Plasmodium berghei; conditions: P. berghei liver stage, averaged response (percent); for Average P. berghei 1 µM response (%): the header list (r8) defines it as the 1 µM dose
# HepG2-A16-CD81EGFP cells = conditions: averaged response (percent)
# [3] = HepG2, the header list (r10) describes it as the 1 µM dose
SMILES,Pf ABS Log AC50 (M) [1] [M],Average P. berghei 3 µM response( %) [2] [%],Average P. berghei 1 µM response (%) [2] [%],"Average HepG2 3 µM response( %) (HepG2-A16-CD81EGFP cells; HepG2, 3 µM dose) [%]",Average HepG2 3 µM response( %) (HepG2-A16-CD81EGFP cells; [3]) [%]
OC(CNCCNc1ncccc1C(F)(F)F)Cn1ccc2ccccc21 (centres unmarked) [MLS000833573],-5.662,109,113,95,101
Br.CCOC(=O)c1c(CSC(=N)N)n(-c2ccc(Br)cc2)c2cc(Br)c(OC(C)=O)cc12 [MLS000595146],-5.712,73,88,102,101
CCCCn1c2c(c(=N)c3c1CCC3)CCC2 [MLS000080126],-5.587,4,41,80,110
Cc1ccc(NC(=O)CCS(=O)(=O)c2cc(Br)cc3c2N(C(=O)C2CC2)CC3)cc1 [NCGC00107230],-5.625,118,117,102,99
COc1ccc(CCN2CCC(Nc3nc4ccccc4n3Cc3ccc(F)cc3)CC2)cc1 [NCGC00016913],-5.658,43,54,100,99
COC(=O)[C@H]1[C@H]2C[C@@H]3c4[nH]c5cc(OC)ccc5c4CCN3C[C@H]2C[C@@H](OC(=O)/C=C/c2cc(OC)c(OC)c(OC)c2)[C@@H]1OC [MLS002153878],-5.162,84,102,105,105
CCN1CCN(C(=O)c2ccc3c(c2)N(Cc2ccccc2F)C(=O)c2ccccc2[S+]3[O-])CC1 (centres unmarked) [NCGC00109528],-6.075,103,106,98,98
CCOC(=O)c1cn(CC)c2cc(N3CCSCC3)c(F)cc2c1=O [MLS000038775],-6.012,21,,85,89
COc1cccc(CNCC(O)(c2ccc(Cl)cc2)c2ccc(Cl)cc2)c1 [MLS000325699],-5.812,98,112,101,105
O=C(Nc1ccc(Cl)cc1)Nc1ccc2c(c1)N1CCN=C1S2 [MLS000078440],-5.612,69,,94,98
CC1CCN(C(=O)CSc2nc(-c3ccc(C(C)C)cc3)no2)CC1 [NCGC00127906],-5.925,103,130,105,105
O=C1CC(c2ccccc2)N(Cc2ccncc2)CCCN(C(=O)Nc2ccccc2F)CCN1 (centres unmarked) [NCGC00467191],-5.775,73,88,103,107
CCc1cccc(-n2c(=O)c3cccnc3n2CC(=O)Nc2ccc(F)c(C)c2)c1 [NCGC00128424],-5.575,91,110,103,107
Cc1nn2c(c1-c1ccccc1-c1ccccc1)N(Cc1ccc(O)cc1)CCC2 [NCGC00420512],-6.314,24,80,111,98
COc1cc2c(cc1Oc1cccc(N(C)C)c1)NC(=O)C21CCN(c2cnccn2)CC1 [NCGC00416778],-5.825,43,96,89,98
CN1CCC(NCCC(c2ccc(F)cc2)c2ccc(Cl)cc2)CC1 (centres unmarked) [MLS001215866],-5.437,70,103,100,100
CCCCCC(=O)O[C@]1(C(C)=O)CC[C@H]2[C@@H]3CCC4=CC(=O)CC[C@]4(C)[C@H]3CC[C@@]21C [MLS000028438],-5.700,29,85,104,104
CC(C)C(=O)OCC(=O)[C@@]12O[C@H](C3CCCCC3)O[C@@H]1C[C@H]1[C@@H]3CCC4=CC(=O)C=C[C@]4(C)[C@H]3[C@@H](O)C[C@@]12C [NCGC00167484],-5.762,125,137,92,94
CCCN(CCC)CCNC(=O)c1cc2c(-c3ccc(Cl)cc3)nn(C)c2s1 [NCGC00108997],-6.212,49,57,98,102
O=C1c2cc(F)ccc2-n2c1nc1ccccc1c2=O [MLS001216278],-5.937,13,25,94,94
CCN1CCN(C(=O)c2ccc3c(c2)N(Cc2c(F)cccc2Cl)C(=O)c2ccccc2S3)CC1 [NCGC00108184],-8.075,76,94,107,105
O=C(Nc1c(C(=O)c2ccccc2)oc2ccccc12)c1cc(-c2ccccc2O)n[nH]1 [MLS000331861],-5.837,116,84,101,103
c1ccc2c(NCCc3c[nH]c4ccccc34)c3ccccc3nc2c1 [MLS001195935],-5.937,47,,82,91
CCN1CCN(Cc2ccc(NC(=O)c3cc(NC(=O)C(=O)c4c[nH]c5ccccc45)cc(OC)c3)cc2C(F)(F)F)CC1.O=C(O)C(F)(F)F [MLS003105970],-6.175,54,132,106,106
N=c1n(N)c2ccccc2n1CC(=O)c1ccc(Br)cc1 [MLS001183984],-5.837,137,110,102,102
